Test system: BHK-SR19-T7 cells
Experiment: Blasticidin concentration that kills BHK-SR19-T7 cells
Type: cell-based, hamster
Conditions: in medium
Method: To launch the replicon, MP295 and the four RSV support plasmids necessary for virus replication and gene expression, N, P, L, and M2-1 were transfected into two 35 mm wells of BHK-SR19-T7 cells (FIG. 4). On day 2, green cells were noted and all of the cells from each 35 mm dish were passaged to 100 mm dishes. On the following day (day 3) the medium was replaced with fresh medium containing 1 ug/ml blasticidin, a concentration that we had determined would kill most BHK-SR19-T7 cells. On day 4, approximately 200 single green cells and 15 pairs of the green cells were noted. On day 6, 20 pairs of green cells were noted. Many of the cells lacking the replicon had died by that time, but a few resistant colonies were growing. The cells were passaged into 150 mm tissue culture plates, in the presence of 4 or 8 ug/ml blasticidin in an attempt to eliminate resistant BHK cell clones. The following day, day 9, 40% of the 175 cell groups counted were pairs, the remainder being singles. By day 14, 3 colonies of >20 cells had developed, while many of the individual green cells had remained single or died. By day 19, many “mixed” colonies containing both replicon-containing and parental cells were noted, as well as more colonies with only green cells.

CN(CC[C@H](N)CC(=O)N[C@H]1C=C[C@H](n2ccc(N)nc2=O)O[C@@H]1C(=O)O)C(=N)N [blasticidin]
concentration that would kill most BHK-SR19-T7 cells: 1000 ng/mL

— patent US7585667B2, “Negative strand RNA virus replicon” (The United States of America as represented by The …, priority 2003, dated 2009)
